Test results published in patent publication US9867795B2, “Nitrated lipids and methods of making and using thereof” (The UAB Research Foundation, priority 2004, dated 2018).

Biological target: T1, hPPARδ (Homo sapiens, UniProt Q03181)
T1 construct: For assessing full-length PPAR receptors, CV-1 cells were transiently co-transfected; expressed in transfected cells; host or cells: CV-1 cells
T1 sequence (Q03181 1-441): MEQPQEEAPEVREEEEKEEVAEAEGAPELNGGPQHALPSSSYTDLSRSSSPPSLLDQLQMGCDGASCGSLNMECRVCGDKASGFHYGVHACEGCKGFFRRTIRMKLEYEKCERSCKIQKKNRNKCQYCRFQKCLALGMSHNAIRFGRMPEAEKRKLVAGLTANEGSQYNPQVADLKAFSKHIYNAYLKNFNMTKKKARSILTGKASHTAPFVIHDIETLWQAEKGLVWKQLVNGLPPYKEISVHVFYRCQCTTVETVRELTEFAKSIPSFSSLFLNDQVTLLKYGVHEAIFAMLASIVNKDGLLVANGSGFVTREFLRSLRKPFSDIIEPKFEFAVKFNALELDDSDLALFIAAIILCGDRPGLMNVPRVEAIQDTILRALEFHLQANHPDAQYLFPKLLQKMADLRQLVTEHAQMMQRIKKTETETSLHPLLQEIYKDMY
Assay: CV-1 PPRE×3 TK-Luciferase transient transfection assay
Format: cell-based
Settings: PPRE reporter, CV-1 cells
Procedure: Cell Transient Transfection Assay. CV-1 cells from ATCC (Manassas, Va.) were grown to ˜85% confluence in DMEM/F12 supplemented with 10% FBS, 1% penicillin-streptomycin. Then, cells were transiently co-transfected with a plasmid containing the luciferase gene under regulation by four Gal4 DNA binding elements (UASG×4 TK-Luciferase, a gift from Dr. Ronald M. Evans), in concert with plasmids containing the ligand binding domain for the different nuclear receptors fused to the Gal4 DNA binding domain. For assessing full-length PPAR receptors, CV-1 cells were transiently co-transfected with a plasmid containing the luciferase gene under the control of three tandem PPAR response elements (PPRE) (PPRE×3 TK-Luciferase) and hPPARγ, hPPARα or hPPARδ expression plasmids, respectively. In all cases, fluorescence protein (GFP) expression plasmid was co-transfected as the control for the transfection efficiency. Twenty-four hours after the transfection, cells were cultured for another 24 hours in Optium-MEM (Invitrogen, Carlsbad, Calif.). Then, cells were treated with different compounds as indicated in figures for 24 hours in Optium-MEM. […]
PPAR transient transfection assay. […] In all cases, fluorescence protein (GFP) expression plasmid was co-transfected as the control for transfection efficiency. […]

Substance: 9- and 10-nitro-9-cis-octadecenoic acid [OA-NO2]
- concentration at which PPARδ activation is significantly different from vehicle (FIG. 17 legend): 1 µM
- concentration at which PPARδ shows significant activation (text of Example 3): ~300 nM
